The values that follow come from ChEMBL document CHEMBL1201862, “PubChem BioAssay data set” (2004).

Test systems include HCT-116; HOP-62; NCI-H226; UO-31; SN12C; NCI-H460; M14; UACC-257; NCI-H23; HT-29; SNB-75; KM12; TK-10; OVCAR-3; SR; NCI/ADR-RES; MOLT-4; 786-0.
What all share (assay): growth of human tumour cells (NCI), 48 h

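All cell lines were grown in 96-well plates and treated with compound for 48 hours. The concentration for 50% growth inhibition is given as GI50.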 Activity calls are given as the source filed them. Rule as the data show it: active = GI50 up to about 1.1 µM and inactive = higher.

On to `CN(C)CCn1c(=O)c2ccc(NCCNCCO)c3c(=O)c4ccccc4n(c1=O)c23`, for which the GI50 was 0.0492 µM (active) with HCT-116; 0.0287 µM (active) in the test with HOP-62; 0.0348 µM (active) in the test with NCI-H226; 0.126 µM (active) in the test on UO-31; 0.0206 µM (active) in the test with SN12C; < 0.01 µM (active) in the test with NCI-H460. Besides, the GI50 is 0.14 µM (active) in the test on M14; 0.368 µM (active) with UACC-257; 0.0342 µM (active) in the test with NCI-H23; 0.0853 µM (active) in the test with HT-29; 0.0445 µM (active) with SNB-75; 0.249 µM (active) in the test on KM12. In addition, the GI50 in the test on TK-10 was 0.764 µM (active); in the test with OVCAR-3 it was 0.288 µM (active); in the test with SR it was < 0.01 µM (active); with NCI/ADR-RES, 1.72 µM (inactive); in the test with MOLT-4, < 0.01 µM (active); in the test with 786-0 it was 0.0149 µM (active).
As to `Cn1c(=O)c2c(ncn2CCCCOc2ccc3c(c2)[n+]([O-])nc(N)[n+]3[O-])n(C)c1=O`, the GI50 in the test on HCT-116 was 28.1 µM (inactive); in the test with HOP-62, 22.7 µM (inactive); in the test on NCI-H226, 19.4 µM (inactive); with UO-31, > 100 µM (inactive); in the test on SN12C, 37.4 µM (inactive); in the test on NCI-H460, 31 µM (inactive). Besides, the GI50 in the test with M14 is 29.4 µM (inactive); with UACC-257, 23.9 µM (inactive); in the test on NCI-H23 it was 12.4 µM (inactive); in the test on HT-29 it was 43.2 µM (inactive); in the test with SNB-75, 27.9 µM (inactive); with KM12, 32.6 µM (inactive). The GI50 in the test on TK-10 is 51.6 µM (inactive); with OVCAR-3 it was 20.4 µM (inactive); in the test on SR, 49.2 µM (inactive); with NCI/ADR-RES, > 100 µM (inactive); in the test on MOLT-4, 25.4 µM (inactive); in the test on 786-0, 29 µM (inactive).
Consider `COc1cccc(C2c3cc4c(cc3OC(N3CCCC3)C2C)OCO4)c1O` (stereo not drawn), for which the GI50 was 4.61 µM (inactive) in the test with HCT-116; 7.52 µM (inactive) in the test with HOP-62; 4.53 µM (inactive) with NCI-H226; 8.26 µM (inactive) with UO-31; 4.84 µM (inactive) in the test with SN12C; 4.6 µM (inactive) with NCI-H460. In addition, the GI50 with M14 was 3.18 µM (inactive); in the test on UACC-257 it was 4.41 µM (inactive); in the test with NCI-H23 it was 4.08 µM (inactive); in the test with HT-29, 3.32 µM (inactive); in the test on SNB-75, 2.4 µM (inactive); in the test with KM12, 3.03 µM (inactive). Further, the GI50 in the test with TK-10 is 3.99 µM (inactive); with OVCAR-3, 2.77 µM (inactive); with SR, 4.38 µM (inactive); in the test with NCI/ADR-RES, 3.7 µM (inactive); with MOLT-4, 6.7 µM (inactive); in the test on 786-0, 4.89 µM (inactive).
Turning to `O=c1cc(/C=C/c2ccc(O)c(O)c2)oc(/C=C/c2ccc(O)c(O)c2)c1`, the GI50 in the test with HCT-116 was 4.53 µM (inactive); in the test on HOP-62 it was 7.53 µM (inactive); in the test on NCI-H226, 5.16 µM (inactive); in the test with UO-31, 4.66 µM (inactive); with SN12C, 4.29 µM (inactive); with NCI-H460, 5.02 µM (inactive). Also, the GI50 in the test on M14 was 4.52 µM (inactive); with UACC-257, 5.31 µM (inactive); in the test with NCI-H23, 4.57 µM (inactive); in the test with HT-29 it was 7.91 µM (inactive); with SNB-75, 4.41 µM (inactive); with KM12, 4.37 µM (inactive). Also, the GI50 in the test on TK-10 is 7.33 µM (inactive); in the test with OVCAR-3 it was 3.19 µM (inactive); in the test with SR, 1.07 µM (active); with NCI/ADR-RES, 26.1 µM (inactive); in the test with MOLT-4, 1.83 µM (inactive); in the test with 786-0 it was 5.75 µM (inactive).
`C=C(C)[C@@H]1CC[C@]2(C(=O)O)CC[C@]3(C)[C@H](CC[C@@H]4[C@@]5(C)CC[C@H](O)C(C)(C)[C@@H]5CC[C@]43C)[C@@H]12` [BETULINIC ACID]: the GI50 in the test on HCT-116 was 4.27 µM (inactive); with HOP-62 it was 8.36 µM (inactive); in the test on NCI-H226 it was 13.2 µM (inactive); in the test on UO-31, 11 µM (inactive); in the test on SN12C, 10.8 µM (inactive); in the test on NCI-H460, 7.28 µM (inactive). The GI50 in the test on M14 is 10.3 µM (inactive); in the test with UACC-257 it was 6.03 µM (inactive); in the test on NCI-H23, 2.58 µM (inactive); in the test on HT-29, 8.24 µM (inactive); with SNB-75, 8.87 µM (inactive); with KM12 it was 5.93 µM (inactive). For the same compound, the GI50 in the test on TK-10 was 14.8 µM (inactive); in the test with OVCAR-3, 2.61 µM (inactive); in the test on SR, 5.53 µM (inactive); in the test on NCI/ADR-RES it was 7.23 µM (inactive); in the test with MOLT-4, 4.51 µM (inactive); in the test on 786-0, 10.2 µM (inactive).
With `CC(=O)NC1C(OCc2ccccc2)OC(CO)C(O)C1OC(C)C(=O)NC(C)C(=O)NC(CCC(=O)NCCCCNc1c2ccccc2nc2cccc([N+](=O)[O-])c12)C(N)=O` (stereo not drawn), the GI50 with HCT-116 was 0.00748 µM (active); in the test on HOP-62 it was 0.0791 µM (active); with NCI-H226 it was 0.0962 µM (active); with UO-31 it was 0.0738 µM (active); in the test with SN12C it was 0.0284 µM (active); with NCI-H460, 0.00445 µM (active). In addition, the GI50 is 0.277 µM (active) with M14; 0.121 µM (active) with UACC-257; 0.0457 µM (active) in the test with NCI-H23; 0.00514 µM (active) in the test on HT-29; 0.18 µM (active) in the test on SNB-75; 0.0482 µM (active) with KM12. The GI50 with TK-10 is 0.0202 µM (active); in the test with OVCAR-3, 0.139 µM (active); in the test with SR it was 0.00796 µM (active); in the test with NCI/ADR-RES, 0.123 µM (active); with MOLT-4 it was 0.148 µM (active); with 786-0, 0.0198 µM (active).
For `O=Cc1ccc(-c2nccc3c2[nH]c2ccccc23)o1`, the GI50 is 55.7 µM (inactive) with HCT-116; 42.8 µM (inactive) with HOP-62; 1.31 µM (inactive) with NCI-H226; > 100 µM (inactive) in the test on UO-31; > 100 µM (inactive) with SN12C; 38.9 µM (inactive) with NCI-H460. Moreover, the GI50 in the test with M14 is 91.6 µM (inactive); in the test on UACC-257, 24.5 µM (inactive); in the test on NCI-H23 it was > 100 µM (inactive); in the test on HT-29, > 88.1 µM (inactive); in the test on SNB-75 it was > 100 µM (inactive); with KM12, > 100 µM (inactive). For the same compound, the GI50 in the test with TK-10 was 7.36 µM (inactive); in the test on OVCAR-3, > 75.7 µM (inactive); in the test with SR, > 100 µM (inactive); in the test with NCI/ADR-RES, > 100 µM (inactive); in the test with MOLT-4 it was > 94.8 µM (inactive); in the test on 786-0, > 89.9 µM (inactive).
As for `C=C(C)[C@H]1C=C[C@@H](OC(=O)c2cccnc2)[C@@]23CO[C@@](C)([C@H](OC(=O)c4cccnc4)[C@@]4(OC(C)=O)C[C@H](C)[C@H](OCCC)[C@@H]4[C@H]2OC(C)=O)[C@H]13`, the GI50 in the test on HCT-116 is > 15 µM (inactive); with HOP-62, 10.9 µM (inactive); with NCI-H226 it was > 15 µM (inactive); in the test on UO-31, > 15 µM (inactive); in the test with SN12C, > 15 µM (inactive); with NCI-H460, 4.94 µM (inactive). Moreover, the GI50 in the test on M14 was 12.7 µM (inactive); in the test on UACC-257, > 15 µM (inactive); with NCI-H23, > 15 µM (inactive); with SNB-75, 3.82 µM (inactive); with KM12 it was > 15 µM (inactive); with TK-10, > 15 µM (inactive). Besides, the GI50 with OVCAR-3 is > 15 µM (inactive); in the test on SR, 11.9 µM (inactive); in the test on NCI/ADR-RES it was > 15 µM (inactive); in the test on MOLT-4 it was 7.1 µM (inactive); in the test on 786-0 it was > 15 µM (inactive).
